Read-outs that look alike come from different tables or passages of the source.
Experiments:
[1] = system: metrazol-induced seizures; test: Time course of antimetrazol activity of prodrugs; format: in vivo, mice (CF1); conditions: 60 mg/kg ip; for responders at 60 mg/kg: Mus musculus
[2] = biological target: GABA receptor-chloride ionophore complex (GR complex); test: [35S]TBPS binding modulation assay; conditions: for Max. Inhib., maximal % of specifically bound [35S]-TBPS displaced: saturating concentrations of test compound
progesterone receptor = biological target: T1, progesterone receptor (Bos taurus, UniProt F1N712); test: Inhibition of 3H-progesterone binding to bovine uteral progesterone receptors
T1 construct: from tissue; host or cells: bovine uterus cytosol
T1 sequence (F1N712 1-914): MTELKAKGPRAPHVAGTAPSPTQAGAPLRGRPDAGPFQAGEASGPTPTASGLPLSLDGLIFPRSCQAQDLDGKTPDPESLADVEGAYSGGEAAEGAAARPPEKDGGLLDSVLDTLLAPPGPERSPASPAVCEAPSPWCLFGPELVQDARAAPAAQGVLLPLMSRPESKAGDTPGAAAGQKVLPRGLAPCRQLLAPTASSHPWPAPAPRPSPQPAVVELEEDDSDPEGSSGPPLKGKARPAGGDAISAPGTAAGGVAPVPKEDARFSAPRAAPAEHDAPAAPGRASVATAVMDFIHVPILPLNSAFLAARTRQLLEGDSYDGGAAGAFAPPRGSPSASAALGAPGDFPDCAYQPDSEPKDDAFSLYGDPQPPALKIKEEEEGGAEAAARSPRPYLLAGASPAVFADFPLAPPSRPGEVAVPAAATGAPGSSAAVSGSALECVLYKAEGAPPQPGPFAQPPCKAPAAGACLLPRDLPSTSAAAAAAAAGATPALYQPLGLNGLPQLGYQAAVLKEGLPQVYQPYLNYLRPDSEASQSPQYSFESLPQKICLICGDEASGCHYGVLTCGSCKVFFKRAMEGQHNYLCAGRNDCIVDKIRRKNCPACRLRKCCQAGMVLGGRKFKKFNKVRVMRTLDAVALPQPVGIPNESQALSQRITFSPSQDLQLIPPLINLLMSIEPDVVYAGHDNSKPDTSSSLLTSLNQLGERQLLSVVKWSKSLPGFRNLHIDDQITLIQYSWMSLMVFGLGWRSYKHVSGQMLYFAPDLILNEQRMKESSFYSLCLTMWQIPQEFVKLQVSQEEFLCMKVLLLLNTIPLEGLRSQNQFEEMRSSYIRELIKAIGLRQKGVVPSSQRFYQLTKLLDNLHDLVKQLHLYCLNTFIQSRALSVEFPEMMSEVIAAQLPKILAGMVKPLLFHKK
Method: The hormonal activity of drugs described herein was further studied through testing their potential estrogenic, progestinic, mineralocorticoid and glucocorticoid activities. These activities were analyzed by monitoring the ability of the drugs to inhibit binding of the steroid hormones to their respective hormone receptors.
For the data presented in Table 9, bovine uteri cytosol was isolated as they were for Table 7 and used for following binding to progesterone receptors by following the inhibition of ^3 H-progesterone, the natural ligand.

[3] = 1 hr, read-out: Antimetrazol activity, % of animals protected, 1 hr
[4] = 4 hr, read-out: Antimetrazol activity, % of animals protected, 4 hr
[5] = read-out: IC50, inhibition of [35S]-TBPS binding, +5 μM GABA, in the presence of 5 μM GABA
[6] = read-out: % of inhibition of 3H-progesterone binding, A, competitor 10^-5 M, 0.15 nM 3H-progesterone
[7] = read-out: % of inhibition of 3H-progesterone binding, A, competitor 10^-6 M, 0.15 nM 3H-progesterone
[8] = read-out: % of inhibition of 3H-progesterone binding, B, competitor 10^-5 M, 0.25 nM 3H-progesterone
[9] = read-out: % of inhibition of 3H-progesterone binding, B, competitor 10^-6 M, 0.25 nM 3H-progesterone
[10] = washed synaptoneurosomes, no GABA added
[11] = read-out: IC50, inhibition of [35S]-TBPS binding, No GABA, washed synaptoneurosomes, no GABA added

## CCC(=O)O[C@@H]1CC[C@@]2(C)[C@@H](CC[C@@H]3[C@@H]2CC[C@]2(C)[C@@H](C(C)=O)CC[C@@H]32)C1
[1]; [3]
  responders at 60 mg/kg: 75%
[1]; [4]
  responders at 60 mg/kg: 0%

## CCCCC(=O)O[C@@H]1CC[C@@]2(C)[C@@H](CC[C@@H]3[C@@H]2CC[C@]2(C)[C@@H](C(C)=O)CC[C@@H]32)C1
[1]
  Antimetrazol activity, % of animals protected, 20 hr: 33%
[1]; [3]
  responders at 60 mg/kg: 33%
[1]; [4]
  responders at 60 mg/kg: 33%

## CC(=O)[C@H]1CC[C@H]2[C@@H]3CC[C@H]4C[C@H](OC(=O)C5CCC5)CC[C@]4(C)[C@H]3CC[C@]12C
[1]
  Antimetrazol activity, % of animals protected, 20 hr: 17%
[1]; [3]
  responders at 60 mg/kg: 17%

## CC(=O)[C@H]1CC[C@H]2[C@@H]3CC[C@H]4C[C@H](OC(=O)c5cccnc5)CC[C@]4(C)[C@H]3CC[C@]12C
[1]
  Antimetrazol activity, % of animals protected, 20 hr: 50%

## CC(=O)[C@H]1CC[C@H]2[C@@H]3CC[C@H]4C[C@H](OC(=O)C5=CN(C)C=CC5)CC[C@]4(C)[C@H]3CC[C@]12C
[1]
  Antimetrazol activity, % of animals protected, 20 hr: 63%
[1]; [3]
  responders at 60 mg/kg: 0%
[1]; [4]
  responders at 60 mg/kg: 0%

## CC(=O)[C@H]1CC[C@H]2[C@@H]3CC[C@H]4C[C@@H]5O[C@@H]5C[C@]4(C)[C@H]3CC[C@]12C [2,3-EPOXY-5α-PREGNAN-20-ONE, 2α,3α-Epoxy-5α-pregnan-20-one, reference compound]
[2]; [5]
  IC50: 100 µM

## CC(C)(O)[C@H]1CC[C@H]2[C@@H]3CC[C@H]4C[C@](C)(O)CC[C@]4(C)[C@H]3CC[C@]12C [3α,20-dihydroxy-3β,20-dimethyl-5α-pregnane]
[2]
  Max. Inhib., maximal % of specifically bound [35S]-TBPS displaced: 50%
Progesterone receptor; [6]
  inhibition at 10 µM: 5%
Progesterone receptor; [7]
  inhibition at 1 µM: 8%
Progesterone receptor; [8]
  inhibition at 10 µM: 0%
Progesterone receptor; [9]
  inhibition at 1 µM: 0%

## C[C@]12CC[C@@H](O)C[C@@H]1CC[C@@H]1[C@@H]2CC[C@]2(C)[C@@H](C(=O)O)CC[C@@H]12 [3α-HYDROXY-5α-ANDROSTAN-17β-CARBOXYLATE, 3α-Hydroxy-5α-androstane-17β-carboxylic acid]
[2]; [5]
  IC50: 2.68 µM
[2]
  Max. Inhib., maximal % of specifically bound [35S]-TBPS displaced: 63%

## C/C=C1/CC[C@H]2[C@@H]3CC[C@H]4C[C@H](O)CC[C@]4(C)[C@H]3CC[C@]12C [3α-HYDROXY-5α-CIS-PREGN-17(20)-ENE, 3α-hydroxy-(5α)-cis-pregn-17(20)-ene]
[2]; [5]
  IC50: 0.068 µM
[2]
  Max. Inhib., maximal % of specifically bound [35S]-TBPS displaced: 100%

## CC(=O)C1=CC[C@H]2[C@@H]3CC[C@H]4C[C@H](O)CC[C@]4(C)[C@H]3CC[C@]12C [3α-HYDROXY-5α-PREGN-16-EN-20-ONE]
[2]; [5]
  IC50: 0.161 µM
[2]
  Max. Inhib., maximal % of specifically bound [35S]-TBPS displaced: 100%

## CO[C@@H]1C[C@H]2[C@@H]3CC[C@H]4C[C@H](O)CC[C@]4(C)[C@H]3CC[C@]2(C)[C@H]1C(C)=O [3α-HYDROXY-5α-PREGNAN-16α-METHOXY-20-ONE]
[2]; [5]
  IC50: 4.5 µM
[2]
  Max. Inhib., maximal % of specifically bound [35S]-TBPS displaced: 73%

## CC(=O)C1=CC[C@H]2[C@@H]3CC[C@@H]4C[C@H](O)CC[C@]4(C)[C@H]3CC[C@]12C [3α-HYDROXY-5β-PREGN-16-EN-20-ONE]
[2]; [5]
  IC50: 1 µM
[2]
  Max. Inhib., maximal % of specifically bound [35S]-TBPS displaced: 100%

## CC(=O)[C@H]1CC[C@H]2[C@@H]3CC[C@H]4C[C@@](C)(O)CC[C@]4(C)[C@H]3CC[C@]12C [3β-HYDROXY-3α-METHYL-5α-PREGNAN-20-ONE, 3β-HYDROXY-3α-METHYL-5α- PREGNAN-20-ONE]
[2]; [5]
  IC50: 7.4 µM
[2]
  Max. Inhib., maximal % of specifically bound [35S]-TBPS displaced: 55%

## C[C@]12C[C@H](O)[C@H]3[C@@H](CCC4=CC(=O)CC[C@@]43C)[C@@H]1CC[C@@H]2C(=O)CO [4-PREGNEN-11b,21-DIOL- 3,20-DIONE, reference compound]
[2]; [5]
  IC50: > 100 µM
[2]
  Max. Inhib., maximal % of specifically bound [35S]-TBPS displaced: 21%
[2]; [10]
  IC50, inhibition of [35S]-TBPS binding, No GABA: Inactive

## CC(=O)[C@H]1CC[C@H]2[C@@H]3CC=C4C[C@@H](O)CC[C@]4(C)[C@H]3CC[C@]12C [5-PREGNEN-3β-OL-20-ONE (PREGNENOLONE), 5-PREGNEN-3β-OL-20-ONE, reference compound]
[2]; [5]
  IC50: > 100 µM
[2]
  Max. Inhib., maximal % of specifically bound [35S]-TBPS displaced: 30%
[2]; [10]
  IC50, inhibition of [35S]-TBPS binding, No GABA: Inactive

## C[C@]12CC[C@@H](O)C[C@@H]1CC[C@@H]1[C@@H]2CC[C@]2(C)[C@@H](O)CC[C@@H]12 [5α-ANDROSTAN-3α,17β-DIOL, 5α-ANDROSTAN-3α ,17β-DIOL]
[2]; [5]
  IC50: 1 µM
[2]; [11]
  IC50: 15 µM
[2]
  Max. Inhib., maximal % of specifically bound [35S]-TBPS displaced: 100%

## C[C@]12CCC(=O)C[C@@H]1CC[C@@H]1[C@@H]2CC[C@]2(C)[C@@H](O)CC[C@@H]12 [5α-ANDROSTAN-17β-OL-3-ONE, 5α-ANDROSTAN-17β-OL-3- ONE, reference compound]
[2]; [5]
  IC50: 18 µM
[2]; [11]
  IC50: > 100 µM
[2]
  Max. Inhib., maximal % of specifically bound [35S]-TBPS displaced: 52%

## C[C@@H](O)[C@H]1CC[C@H]2[C@@H]3CC[C@H]4C[C@H](O)CC[C@]4(C)[C@H]3CC[C@]12C [5α-PREGNAN-3α,20β-DIOL]
[2]; [5]
  IC50: 1 µM
[2]
  Max. Inhib., maximal % of specifically bound [35S]-TBPS displaced: 100%

## C[C@]12CC[C@@H](O)C[C@@H]1CC[C@H]1[C@@H]3CC[C@H](C(=O)CO)[C@@]3(C)CC(=O)[C@@H]12 [5α-PREGNAN-3α,21-DIOL-11,20-DIONE, 5α-PREGNAN-3α,21-DIOL- 11,20-DIONE]
[2]; [5]
  IC50: 5.5 µM
[2]; [11]
  IC50: > 100 µM

## C[C@H](O)[C@H]1CC[C@H]2[C@@H]3CC[C@@H]4C[C@H](O)CC[C@]4(C)[C@H]3CC[C@]12C [5β-pregnan-3α,20α-diol]
Progesterone receptor; [6]
  inhibition at 10 µM: 1%
Progesterone receptor; [8]
  inhibition at 10 µM: 1%

## CC(=O)[C@H]1CC[C@H]2[C@@H]3CC[C@@H]4C[C@H](O)CC[C@]4(C)[C@H]3CC[C@]12C [5β-pregnan-3α,ol-20-one]
Progesterone receptor; [6]
  inhibition at 10 µM: 17%
Progesterone receptor; [7]
  inhibition at 1 µM: 9%
Progesterone receptor; [8]
  inhibition at 10 µM: 13%
Progesterone receptor; [9]
  inhibition at 1 µM: 1%

## C[C@]12CC[C@@H]3c4ccc(O)cc4CC[C@H]3[C@@H]1CC[C@@H]2O [17β-ESTRADIOL, reference compound]
[2]; in the presence of 5 μM GABA
  IC50, inhibition of [35S]-TBPS binding, +5 μM GABA: Inactive
[2]
  Max. Inhib., maximal % of specifically bound [35S]-TBPS displaced: 0%
[2]; [10]
  IC50, inhibition of [35S]-TBPS binding, No GABA: Inactive

## C[C@]12CC[C@@H](O)C[C@@H]1CC[C@@H]1[C@@H]2CC[C@]2(C)[C@@H](C(=O)CCl)CC[C@@H]12 [21-CHLORO-5α-PREGNAN-3α-OL-20-ONE]
[2]; [5]
  IC50: 0.08 µM
[2]
  Max. Inhib., maximal % of specifically bound [35S]-TBPS displaced: 100%

## CC(C)CCC[C@@H](C)[C@H]1CC[C@H]2[C@@H]3CC=C4C[C@@H](O)CC[C@]4(C)[C@H]3CC[C@]12C [CHOLESTEROL, reference compound]
[2]; in the presence of 5 μM GABA
  IC50, inhibition of [35S]-TBPS binding, +5 μM GABA: Inactive
[2]; modulation of [35S]TBPS binding
  potency/activity at the GR complex: essentially inactive
[2]
  Max. Inhib., maximal % of specifically bound [35S]-TBPS displaced: 0%
[2]; [10]
  IC50, inhibition of [35S]-TBPS binding, No GABA: Inactive

## CC(=O)[C@H]1CC[C@H]2[C@@H]3CC[C@H]4C[C@H](O)CC[C@]4(C)[C@H]3C(=O)C[C@]12C [alphaxalone, 5α-PREGNAN-3α-OL-11,20-DIONE, reference compound]
[2]; [5]
  IC50: 0.264 µM
[2]; [11]
  IC50: 11 µM

Source: US5232917A, “Methods, compositions, and compounds for allosteric modulation of the GABA receptor by members of the androstane and pregnane series” (priority 1991, dated 1993)
